The values that follow come from patent publication US20150072969A1, “PHENYL ALKANOIC ACID DERIVATIVES AS GPR AGONISTS” (PIRAMAL ENTERPRISES LIMITED, priority 2012, published 2015).

SMILES strings stand for the structures. Where only a bound is given, the exact number is not on record here.

The assay deals with T1, human GPR40 (Homo sapiens, UniProt O14842).
T1 construct: expressed in transfected cells
T1 sequence (O14842 whole entry): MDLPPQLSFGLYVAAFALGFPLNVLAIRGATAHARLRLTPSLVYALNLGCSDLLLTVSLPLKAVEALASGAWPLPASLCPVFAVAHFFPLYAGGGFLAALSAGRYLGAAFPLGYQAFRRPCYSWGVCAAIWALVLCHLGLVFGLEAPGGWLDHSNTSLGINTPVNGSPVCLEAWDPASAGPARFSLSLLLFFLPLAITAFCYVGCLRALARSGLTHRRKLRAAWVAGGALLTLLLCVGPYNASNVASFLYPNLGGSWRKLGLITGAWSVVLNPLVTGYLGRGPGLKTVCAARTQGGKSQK
The experiment in a line: Inositol phosphate accumulation assay in FFAR1 (GPR40) CHOK1 clone. The following applies: GPR40 agonist activity; intracellular inositol phosphate release in CHOK1 cells stably expressing recombinant human GPR40; 1 h incubation at 37° C. Format: cell-based. The protocol:
The inositol phosphate accumulation assay was performed to characterise the GPR40 agonist activity of the compounds of the present invention.
The assay was carried out in accordance with the method substantially as described in Diabetes, 2008, 57(8):2211-2219 and PLoS One, 2011, 6(11):e27270.
A stable FFAR1 (GPR40) CHOK1 clone was used to determine the GPR40 agonist activity of the test compounds (compounds of the present invention synthesized in the above Examples). The stable FFAR1 (GPR40) CHOK1 clone expressing recombinant human GPR40 was generated according to the procedure described herein below.
Full-length human GPR40 cDNA (Accession Number: NM_005303) was cloned into mammalian expression vector (pReceiver) and was stably transfected into (Chinese Hamster Ovary) CHOK1 cells using Amaxa technology. 2 μg of pReceiver hGPR40 were transfected into 1×10^6 CHOK1 cells in 6 well plates. The cells were split into three 100 mm cell culture plates on the second day and geneticin (800 μg/ml) was added to the cell culture on the third day. The selection medium comprising Ham's F-12 K supplemented with FBS (10%) and geneticin (800 μg/ml) was changed every three days until colonies were formed. The colonies isolated were further purified (single cell cloning) after 14 days to obtain pure isogenic single cell homogenous population of cells expressing the GPR40 receptor protein on the cell surface. GPR40 receptor expression on cell surface was measured by flow cytometry. The in-house transgenic cell line (clone) created was labeled as FFAR1 (GPR40) CHOK1 clone.
FFAR1 (GPR40) CHOK1 cells were suspended in culture medium comprising Ham's F-12 K supplemented with FBS (10%) and geneticin (800 μg/ml). Cells were seeded at a density of 2×10^4 cells per well in a 384 well tissue culture plate and cultured overnight. The medium was discarded and the cells were further resuspended in a stimulation buffer comprising HEPES (10 mM), glucose (5.5 mM), CaCl2 (1 mM), NaCl (150 mM), KCl (4.2 mM), MgCl2 (0.5 mM) and LiCl (50 mM) having a pH of 7.6. The test compounds (representative compounds of Formula (I)) 10 mM stock were prepared in DMSO and subsequently log fold dilution of the test compounds were carried out in the stimulation buffer. Various concentrations of the test compounds and the standard DMSO solution were added to each well. The plates were further incubated at 37° C., 5% CO2 incubator for 1 h. The final concentration of the test compounds in the each well varied from 1 μM to 10 μM. The DMSO concentration in the assay was 0.1% or less. After incubation, lysis reagent and anti-Tb conjugate were added to each well. The intracellular Inositol Phosphate release and accumulation in the test compounds were measured by the binding ability of the anti-Tb conjugate with the inositol phosphate inherently produced in each well as compared with the inositol phosphate coupled to dye d2 added externally to each well. The plates were then read using Perkin Elmer (Envision) plate reader and the fluorescence signal was captured. The EC50 values for the test compounds were calculated from the non linear regression sigmoidal curve graphs plotted between the concentrations of the test compounds and the fluorescence intensity.
Consider `Cc1cc(OCCCS(C)(=O)=O)cc(C)c1-c1cccc(COc2ccc(C3(CC(=O)O)COC3)cc2F)c1` [Example 16, 2-(3-(4-((2′,6′-Dimethyl-4′-(3-(methylsulfonyl)propoxy)-[1,1′-biphenyl]-3-yl)methoxy)-3-fluorophenyl)oxetan-3-yl)acetic acid], for which the EC50 is > 500 nM.
The value for `O=C(O)CC1(c2ccc(OCc3cccc(-c4ccc(OCC5CCOCC5)cc4Cl)c3)cc2)COC1` [Example 72, 2-(3-(4-((2′-Chloro-4′-((tetrahydro-2H-pyran-4-yl)methoxy)-[1,1′-biphenyl]-3-yl)methoxy)phenyl)oxetan-3-yl)acetic acid] was < 100 nM; that for `CSc1ccc(-c2cccc(COc3ccc(C4(CC(=O)O)COC4)cc3)c2)cc1` [Example 83, 2-(3-(4-((4′-(Methylthio)-[1,1′-biphenyl]-3-yl)methoxy)phenyl)oxetan-3-yl)acetic acid] was 100 to 500 nM.
Take `Cc1cc(OCC2CCCO2)cc(C)c1-c1cccc(COc2ccc(C3(CC(=O)O)COC3)cc2)c1` (stereo not drawn) [Example 47, 2-(3-(4-((2′,6′-Dimethyl-4′-((tetrahydrofuran-2-yl)methoxy)-[1,1′-biphenyl]-3-yl)methoxy)phenyl)oxetan-3-yl)acetic acid]: the EC50 is < 100 nM.
The same measure for `O=C(O)CC1(c2ccc(OCc3ccc(-c4ccccc4)cc3)cc2)COC1` [Example 8, 2-(3-(4-([1,1′-Biphenyl]-4-ylmethoxy)phenyl)oxetan-3-yl)acetic acid]: 100 to 500 nM; for `O=C(O)CC1(c2ccc(OCc3cccc(-c4ccccc4)c3)cc2)COC1` [Example 4, 2-(3-(4-([1,1′-Biphenyl]-3-ylmethoxy)phenyl)oxetan-3-yl)acetic acid]: 100 to 500 nM.
The value for `COc1ccc(COc2ccc(C3(CC(=O)O)COC3)cc2)cc1C(F)(F)F` [Example 22] was > 500 nM; that for `COc1cc(COc2ccc(C3(CC(=O)O)COC3)cc2)ccc1C(F)(F)F` [Example 30, 2-(3-(4-((3-Methoxy-4-(trifluoromethyl)benzyl)oxy)phenyl)oxetan-3-yl)acetic acid] was > 500 nM; that for `CS(=O)(=O)CCCOc1ccc(-c2cccc(COc3ccc(C4(CC(=O)O)COC4)cc3)c2)c(Cl)c1` [Example 62, 2-(3-(4-((2′-Chloro-4′-(3-(methylsulfonyl)propoxy)-[1,1′-biphenyl]-3-yl)methoxy)phenyl)oxetan-3-yl)acetic acid] was < 100 nM.
As for `Cc1cc(OCCCS(C)(=O)=O)cc(C)c1-c1cccc(COc2ccc(C3(CC(=O)O)COC3)cc2)c1` [Example 10, 2-(3-(4-((2′,6′-Dimethyl-4′-(3-(methylsulfonyl)propoxy)-[1,1′-biphenyl]-3-yl)methoxy)phenyl)oxetan-3-yl)acetic acid], the concentration for a half-maximal effect (EC50) was < 100 nM.
The value for `O=C(O)CC1(c2ccc(OCc3cccc(F)c3)cc2)COC1` [Example 102, 2-(3-(4-((3-Fluorobenzyl)oxy)phenyl)oxetan-3-yl)acetic acid] was > 500 nM; that for `Cc1cc(OCCCS(C)(=O)=O)ccc1-c1cccc(COc2ccc(C3(CC(=O)O)COC3)cc2)c1` [Example 77, 2-(3-(4-((2′-Methyl-4′-(3-(methylsulfonyl)propoxy)-[1,1′-biphenyl]-3-yl)methoxy)phenyl)oxetan-3-yl)acetic acid] was < 100 nM; that for `O=C(O)CC1(c2ccc(OCc3cccc(-c4ccc(OCC5(CO)COC5)cc4Cl)c3)cc2)COC1` [Example 66, 2-(3-(4-((2′-Chloro-4′-((3-(hydroxymethyl)oxetan-3-yl)methoxy)-[1,1′-biphenyl]-3-yl)methoxy)phenyl)oxetan-3-yl)acetic acid] was < 100 nM.
The same measure for `O=C(O)CC1(c2ccc(OCc3cccc(-c4ccccc4)c3)c(F)c2)COC1` [Example 12, 2-(3-(4-([1,1′-Biphenyl]-3-ylmethoxy)-3-fluorophenyl)oxetan-3-yl)acetic acid]: > 500 nM; for `COc1cc(-c2cccc(COc3ccc(C4(CC(=O)O)COC4)cc3)c2)ccc1OCCCS(C)(=O)=O` [Example 81, 2-(3-(4-((3′-Methoxy-4′-(3-(methylsulfonyl)propoxy)-[1,1′-biphenyl]-3-yl)methoxy)phenyl)oxetan-3-yl)acetic acid]: > 500 nM; for `O=C(O)CC1(c2ccc(OCc3cccc(-c4ccc(OCC5CCC5)cc4)c3)cc2)COC1` [Example 75, 2-(3-(4-((4′-(Cyclobutylmethoxy)-[1,1′-biphenyl]-3-yl)methoxy)phenyl)oxetan-3-yl)acetic acid]: > 500 nM.
The value for `O=C(O)CC1(c2ccc(OCc3ccc(C(F)(F)F)c(F)c3)cc2)COC1` [Example 32, 2-(3-(4-((3-Fluoro-4-(trifluoromethyl)benzyl)oxy)phenyl)oxetan-3-yl)acetic acid] was > 500 nM; that for `Cc1cc(OCC2CCOCC2)cc(C)c1-c1cccc(COc2ccc(C3(CC(=O)O)COC3)cc2)c1` [Example 43, 2-(3-(4-((2′,6′-Dimethyl-4′-((tetrahydro-2H-pyran-4-yl)methoxy)-[1,1′-biphenyl]-3-yl)methoxy)phenyl)oxetan-3-yl)acetic acid] was < 100 nM.
`CC(=O)N1CC(CC(=O)O)(c2ccc(OCc3cccc(-c4c(C)cc(OCCCS(C)(=O)=O)cc4C)c3)cc2)C1` [Example 96, 2-(1-Acetyl-3-(4-((2′,6′-dimethyl-4′-(3-(methylsulfonyl)propoxy)-[1,1′-biphenyl]-3-yl)methoxy)phenyl)azetidin-3-yl)acetic acid]: the EC50 is > 500 nM.
The value for `COc1cncc(-c2cccc(COc3ccc(C4(CC(=O)O)COC4)cc3)c2)c1` [Example 106, 2-(3-(4-((3-(5-Methoxypyridin-3-yl)benzyl)oxy)phenyl)oxetan-3-yl)acetic acid] was > 500 nM; that for `O=C(O)CC1(c2ccc(OCc3cccc(-c4cnc(N5CCOCC5)nc4)c3)cc2)COC1` [Example 108, 2-(3-(4-((3-(2-Morpholinopyrimidin-5-yl)benzyl)oxy)phenyl)oxetan-3-yl)acetic acid] was < 100 nM; that for `Cc1cc(OC[C@@H]2CCOC2)cc(C)c1-c1cccc(COc2ccc(C3(CC(=O)O)COC3)cc2)c1` [Example 49, (R)-2-(3-(4-((2′,6′-dimethyl-4′-((tetrahydrofuran-3-yl)methoxy)-[1,1′-biphenyl]-3-yl)methoxy)phenyl)oxetan-3-yl)acetic acid] was < 100 nM.
The value for `CS(=O)(=O)CCCOc1ccc(-c2cccc(COc3ccc(C4(CC(=O)O)COC4)cc3)c2)cc1C(F)(F)F` [Example 87, 2-(3-(4-((4′-(3-(Methylsulfonyl)propoxy)-3′-(trifluoromethyl)-[1,1′-biphenyl]-3-yl)methoxy)phenyl)oxetan-3-yl)acetic acid] was > 500 nM; that for `Cc1cc(OCC2(C)COC2)cc(C)c1-c1cccc(COc2ccc(C3(CC(=O)O)COC3)cc2)c1` [Example 51, 2-(3-(4-((2′,6′-Dimethyl-4′-((3-methyloxetan-3-yl)methoxy)-[1,1′-biphenyl]-3-yl)methoxy)phenyl)oxetan-3-yl)acetic acid] was > 500 nM.
Take `O=C(O)CC1(c2ccc(OCc3cccc(-c4ccc(OCC5CCS(=O)(=O)CC5)cc4Cl)c3)cc2)COC1` [Example 70, 2-(3-(4-((2′-Chloro-4′-((1,1-dioxidotetrahydro-2H-thiopyran-4-yl)methoxy)-[1,1′-biphenyl]-3-yl)methoxy)phenyl)oxetan-3-yl)acetic acid]: the EC50 is < 100 nM.
The same measure for `CCCCSc1ccc(-c2cccc(COc3ccc(C4(CC(=O)O)COC4)cc3)c2)cc1` [Example 85, 2-(3-(4-((4′-(Butylthio)-[1,1′-biphenyl]-3-yl)methoxy)phenyl)oxetan-3-yl)acetic acid]: > 500 nM.
In the case of `O=C(O)CC1(c2ccc(OCc3cccc(-c4ccc(C(F)(F)F)cc4)c3)c(F)c2)COC1` [Example 98, 2-(3-(3-Fluoro-4-((4′-(trifluoromethyl)-[1,1′-biphenyl]-3-yl)methoxy)phenyl)oxetan-3-yl)acetic acid], the EC50 is > 500 nM.
